# What was measured:
# ddY-N mouse = assay: Body weight gain of young mice over 28 days of administration (Example 7); assay type: in vivo
# Protocol: A total of 120 animals (60 animals for each of male and female) of about 4 weeks old of ddY-N mouse produced by Nippon Ikagaku Dobutsu Shizai Kenkyusho Co., Ltd. was purchased and subjected to 1 week of medical inspection to confirm that their healthy state is normal, and then used in the test. The test plots were set to a total of 4 plots of a control plot in which distilled water for injection is administered into the stomach using a stomach tube at a ratio of 10 ml per 1 kg body weight of the mouse to be tested for 28 continuous days, and 3 test plots in which ALA hydrochloride is administered in the same manner at respective ratios of 5 mg, 10 mg and 25 mg per 1 kg body weight of the mouse to be tested. The mice to be tested were divided into 12 groups, 1 group including 5 males or females, in such a manner that average body weight of each group became almost uniform, and 3 groups of males or females were allotted to each plot and raised for 28 days. The mice to be tested were raised by each group using a series of five stainless steel cages arranged in a raising room set to a room temperature of 23.0±2.0° C. and an irradiation time of 12 hours/day. Body weight gain was calculated by measuring individual body weight at intervals of 1 week from the start of the test.
# [1] = system: Mice (35 to 45 weeks old, BALB/cAJc1); assay: Rotary exercise quantity measuring device, rotations within 16 hours (Example 6); assay type: in vivo, mouse
# Protocol: Mice (35 to 45 weeks old, BALB/cAJc1) preliminary raised for 1 week were injected with 10 mg of ALA hydrochloride per 1 kg mouse body weight once a day for 7 days continuously. ALA hydrochloride was adjusted to a concentration of […] with distilled water and orally administered to the mice. The mouse was put into a rotary exercise quantity measuring device (rotating basket: 200 mm in diameter×50 mm in width, raising basket: W 90 mm×D 220 mm×H 90 mm, manufactured by Shinano Seisakusho) and the number of rotation within 16 hours was measured before and after the test. The test was carried out using 1 mouse per 1 rotary exercise quantity measuring device, and carried out on female mice using untreated 5 animals and ALA-treated 5 animals as 1 plot, and the values were shown by the average value. It was confirmed that the rotation quantity was large and the exercise capacity was improved in the plot treated with ALA.
# [2] = system: Mice (35 to 45 weeks old, BALB/cAJc1); assay: Thymus weight of aged mice after 7 days oral ALA hydrochloride (Example 1); assay type: in vivo, mouse; settings: 10 mg/kg ALA hydrochloride orally once a day for 7 days, average of 5
# Protocol: Mice (35 to 45 weeks old, BALB/cAJc1) preliminary raised for 1 week were injected with 10 mg of 5-aminolevulinic acid (hereinafter referred to as “ALA”) hydrochloride per kg mouse body weight once a day for 7 days continuously. ALA hydrochloride was adjusted to a concentration of […] with distilled water and orally administered to the mice. After the test, each mouse was sacrificed and the weight of its thymus was measured. The test was carried out using 5 mice per 1 plot, and their values were shown by average value.
# [3] = system: broiler primary chicks (Chunky); assay: Body weight of broiler chicks fed ALA hydrochloride for 7 weeks (Example 9); assay type: in vivo, chick
# Source text: A total of 300 chicks, 150 chicks for females and males respectively, of broiler primary chicks (Chunky) were purchased. After the purchase, chicks having abnormality (weakness or dwarf) were excluded, and the rest were equipped with wing belts for individual identification and their body weights were individually measured. […] Using 15 female or male chicks (30 chicks in total) as 1 group, they were put into a Chick Gird arranged in a closed type barn, and warmed by arranging an infrared ray lamp for animal use. The Chick Gird was expanded along with the growth of chicks. The feed and drinking water were constantly provided. The test groups were set to a total of 3 groups containing a control group in which a control feed (a standard testing feed SDB No. 1 was used from the neonatal to 3 weeks old, or a standard testing feed SDB No. 2 from 3 weeks old to 7 weeks old, (both manufactured by Nippon Formula Feed Mfg Co., Ltd., Table 9) without adding ALA hydrochloride is provided, and 2 test groups of ALA-10 ppm treated group and ALA-50 ppm treated group in which 10 ppm or 50 ppm of ALA hydrochloride is added to the feed and provided, and 3 repetition plots were arranged for each group. The number of chicks to be tested in each test group was as shown in Table 10. The test period was set to 7 weeks (7 weeks old) from the neonatal (start of the added feed provision), and total body weight of females or males was measured for each repetition plot at the time of the neonatal and at intervals of 1 week thereafter. In addition, about 2 ml of blood was collected from a brachial vein (basilic vein) of each of 18 chicks (3 female or male chicks/repetition) of each group at 3 weeks old and 7 weeks old, and about 1.5 ml thereof was subjected to a coagulation preventing treatment using heparin-lithium salt and then the blood plasma was separated to inspect the items of LDH, GOT (AST), γ-GTP, ALP, total protein, albumin, globulin, total cholesterol, triglyceride, glucose, uric acid, total bilirubin, uric acid, creatinine, calcium and inorganic phosphorus.
# [4] = within 16 hours, after 7 days of 10 mg/kg oral dosing
# [5] = within 16 hours, before the 7 days of 10 mg/kg oral dosing
# [6] = ALA-treated groups, 10 ppm or 50 ppm in feed, 7 weeks
smiles,measurement,setting,value
"NCC(=O)CCC(=O)O [ALA, 5-aminolevulinic acid]","Growth (growth curves, body weight gain)","ddY-N mouse; 10 mg/kg into the stomach for 28 days, compared with control, 5 mg/kg and 25 mg/kg plots, averages of males and females",superior growth than other 3 plots
same,Health state,"ddY-N mouse; ALA-treated groups, 5, 10 and 25 mg/kg for 28 days",abnormal health state was not fund
same,Increasing ratio before and after the test (%),"[1]; rotary exercise, 10 mg/kg orally once a day for 7 days",125%
same,"Distance (m), after the test",[1]; [4],8889 m
same,"Number of rotation, after the test",[1]; [4],14155
same,"Distance (m), before the test",[1]; [5],7095 m
same,"Number of rotation, before the test",[1]; [5],11297
same,Thymus,[2]; female mice,0.038 g
same,Thymus,[2]; male mice,0.035 g
same,"Growth (g), body weight","[3]; 10 ppm in feed, 1 week",166.3 g
same,"Growth (g), body weight","[3]; 10 ppm in feed, 2 week",442.0 g
same,"Growth (g), body weight","[3]; 10 ppm in feed, 3 week",817.2 g
same,"Growth (g), body weight","[3]; 10 ppm in feed, 4 week",1402.7 g
same,"Growth (g), body weight","[3]; 10 ppm in feed, 5 week",2063.9 g
same,"Growth (g), body weight","[3]; 10 ppm in feed, 6 week",2736.4 g
same,"Growth (g), body weight","[3]; 10 ppm in feed, 7 week",3420.9 g
same,"Growth (g), body weight","[3]; 10 ppm in feed, neonatal",37.8 g
same,"Growth (g), body weight","[3]; 50 ppm in feed, 1 week",169.1 g
same,"Growth (g), body weight","[3]; 50 ppm in feed, 2 week",436.8 g
same,"Growth (g), body weight","[3]; 50 ppm in feed, 3 week",807.7 g
same,"Growth (g), body weight","[3]; 50 ppm in feed, 4 week",1400.8 g
same,"Growth (g), body weight","[3]; 50 ppm in feed, 5 week",2036.7 g
same,"Growth (g), body weight","[3]; 50 ppm in feed, 6 week",2731.5 g
same,"Growth (g), body weight","[3]; 50 ppm in feed, 7 week",3403.3 g
same,"Growth (g), body weight","[3]; 50 ppm in feed, neonatal",37.7 g
same,General conditions during the test period,[3]; [6],no abnormality was found in the general conditions
same,Raising ratio and pathologic autopsy findings,[3]; [6],an abnormality considered to be due to its addition was not found
